Measurements reported in patent publication US4119719A, “Piperazine compounds” (Parcor, priority 1975, dated 1978).
Where a name gives a salt, the structure may show the parent alone.

Legend:
dyslipaemia = assay: Hypocholesterolaemic activity: rabbits kept on a hypercholesterolaemic diet, biological tests of dyslipaemia; format: in vivo; parameters: total cholesterol (T) / esterified cholesterol (E) / free cholesterol (L) / Burstein test with dextrane (B) / serum lipids (LS): unit not given here; conditions: 10 mg/kg daily oral
Experimental: (§1) (b) This study was carried out on rabbits kept on a hypercholesterolaemic diet. The rabbits are divided into batches of 40 animals; the control batch (A) receives no treatment, whereas the treated batches are given the medicines according to the invention. Thus, derivative no. 1 is administered to the animals in batch B, derivative no. 5 to those in batch C and derivative no. 7 to those in batch D, by oral route, daily, in dosage of 10 mg/kg. On the first day of the experiments and then every 15 days, for a period of 75 days, biological tests are carried out on all the animals, whereby the various elements which indicate dyslipaemia are determined: total cholesterol (T), esterified cholesterol (E), free cholesterol (L), esterification ratio (E/T), Kunkel phenol test (K1), Kunkel phenol test (K2), Burstein test with dextrane (B) and serum lipids (LS).
(§2) The results, representing the average values determined with each batch, are assembled in the following Tables: […]

[1] = tested on: stretching movements induced by acetic acid; assay: Analgesic activity: acetic acid stretching movements (method of Koster, Anderson and De Beer); format: in vivo; conditions: mice, 50 mg/kg oral thirty minutes before acetic acid; reduction in stretching movements in next thirty minutes
Experimental: The intraperitoneal injection of a dilute solution of acetic acid causes, in mice, repeated characteristic stretching movements under the effect of the pain. The oral administration of a dosage of 50 mg/kg of the test derivative, thirty minutes before the injection of acetic acid, reduces the number of movements in the next thirty minutes. In this way, the average number of stretching movements and the percentage analgesia obtained, corresponding to the percentage reduction in the number of stretching movements, compared with the controls, are determined.

[2] = LD50 /24 hours, intravenous route in mice (method of Miller and Tainter); conditions: mouse, in vivo, read-out: LD50 /24 hours/kg of body weight
Experimental: 1, 53 mg for derivative no. 2, 89 mg for derivative no. 3, 57 mg for derivative no. 4, 41 mg for derivative no. 5, 62 mg for derivative no. 6, 66 mg for derivative no. 7, 74 mg for derivative no. 8 and 100 mg for derivative no. 9.

livers and aortas = assay: Rabbits kept on a hypercholesterolaemic diet: macroscopic examination of livers and aortas; format: in vivo; conditions: 10 mg/kg daily oral, end of experiment; for aortic atheromatous lesions: marked in intensity from 0 to 4; for fatty infiltrations of the liver: marked in size from 0 to 3
Experimental: as §1
At the end of the experiment, all the animals are killed and autopsies are performed on them; macroscopic examinations of their livers and aortas are then carried out, and the fatty infiltrations of the liver are marked, in size, from 0 to 3 and the aortic atheromatous lesions are marked, in intensity, from 0 to 4.
as §2

[3] = tested on: cholesterol level in the plasma; assay: Hypocholesterolaemic activity: test using propyl thiouracil; format: in vivo; conditions: rats, 10 mg/kg orally, 11th day
Source text: (a) Test using propyl thiouracil ([…] and Coll., J. Pharmacol. Exper. Therap., 1963, 142, 132-136). […] On the 11th day of the experiment, blood samples are taken and the free cholesterol and total cholesterol are estimated.

ovalbumin oedema = assay: Anti-inflammatory activity: generalised ovalbumin oedema; format: in vivo; conditions: rat, 50 mg oral one hour before and at injection of ovalbumin
Experimental: The rat is given a simultaneous intraperitoneal injection of 1 ml of ovalbumin and 0.5 ml of a 1% aqueous solution of Evans blue. Moreover, 50 mg of the test derivative are administered orally to the animals of the test batches one hour before and at the same time as the injection of ovalbumin. The intensity of the phenomenon thus induced is given a mark from 1 to 5, depending on the progression of the inflammatory syndrome. Thus, the average oedematous intensity and the percentage reduction in the oedematous reaction, compared with the control, are determined.

[4] = tested on: carrageenin-induced oedema; assay: Anti-inflammatory activity: localised carrageenin-induced oedema; format: in vivo; conditions: rat, 10 mg/kg oral (four administrations)
Experimental: A 1% carrageenin solution (0.1 ml) is injected into the metatarsal flexors of the right hind paw of the rat at time 0. The animals in the treated batch are also given by oral route, 10 mg/kg of the test derivative, one hour before, then at the same time as the injection of the phlogogenic agent, then one hour and 21/2 hours afterwards, respectively. The measurements taken with a Roch micrometer at time 0, then 1 hour, 2 hours, 3 hours and 5 hours after administration of the carrageenin make it possible to determine, as a function of time, the percentage anti-inflammatory activity compared with the control batch.

Compound	Burstein test with dextrane (B) (dyslipaemia; 1st Day)	Kunkel phenol test (K1) (dyslipaemia; 1st Day)	Kunkel phenol test (K2) (dyslipaemia; 1st Day)	esterification ratio (E/T) (dyslipaemia; 1st Day)	esterified cholesterol (E) (dyslipaemia; 1st Day)	free cholesterol (L) (dyslipaemia; 1st Day)	serum lipids (LS) (dyslipaemia; 1st Day)	total cholesterol (T) (dyslipaemia; 1st Day)	Burstein test with dextrane (B) (dyslipaemia; 30th Day)	Kunkel phenol test (K1) (dyslipaemia; 30th Day)	Kunkel phenol test (K2) (dyslipaemia; 30th Day)	esterification ratio (E/T) (dyslipaemia; 30th Day)	esterified cholesterol (E) (dyslipaemia; 30th Day)	free cholesterol (L) (dyslipaemia; 30th Day)	serum lipids (LS) (dyslipaemia; 30th Day)	total cholesterol (T) (dyslipaemia; 30th Day)	average percentage of analgesia [1] [%]	LD50 at 24 h [2] [mg/kg]	Free cholesterol [3] [g/L]	Total cholesterol [3] [g/L]	also measured
Cc1ccc(N2CCN(CCCNC3CCCCC3)CC2)cc1 [Derivative no. 1, 1-(3-cyclohexylamino-propyl)-4-p-tolyl-piperazine]	11.1	8.2	13.7	0.50	0.28	0.27	1.95	0.55	21.2	18.6	25.4	0.62	0.92	0.55	2.91	1.47	65	25	–	–	Burstein test with dextrane (B) (dyslipaemia; 75th Day): 35.8; Kunkel phenol test (K1) (dyslipaemia; 75th Day): 33.1; Kunkel phenol test (K2) (dyslipaemia; 75th Day): 41.9; esterification ratio (E/T) (dyslipaemia; 75th Day): 0.66; esterified cholesterol (E) (dyslipaemia; 75th Day): 1.80; free cholesterol (L) (dyslipaemia; 75th Day): 1.12; serum lipids (LS) (dyslipaemia; 75th Day): 4.03; total cholesterol (T) (dyslipaemia; 75th Day): 2.92; aortic atheromatous lesions (livers and aortas): 1.4; fatty infiltrations of the liver (livers and aortas): 0.9
Clc1ccc(N2CCN(CCCN3CCCCC3)CC2)cc1 [Derivative no. 2, 4-p-chlorophenyl-1-(3-piperidinopropyl)-piperazine]	–	–	–	–	–	–	–	–	–	–	–	–	–	–	–	–	72	53	0.13	0.62	–
Cl.Cl.Clc1ccc(N2CCN(CCCN3CCCC3)CC2)cc1 [Derivative no. 7, 1-(p-chlorophenyl)-4-(3-pyrrolidino-propyl)-piperazine dihydrochloride]	10.6	8.1	13.2	0.51	0.27	0.25	1.98	0.52	21.2	18.5	25.2	0.63	0.96	0.55	2.88	1.51	69	66	0.12	0.50	Burstein test with dextrane (B) (dyslipaemia; 75th Day): 35.6; Kunkel phenol test (K1) (dyslipaemia; 75th Day): 32.9; Kunkel phenol test (K2) (dyslipaemia; 75th Day): 50.0; esterification ratio (E/T) (dyslipaemia; 75th Day): 0.62; esterified cholesterol (E) (dyslipaemia; 75th Day): 1.83; free cholesterol (L) (dyslipaemia; 75th Day): 1.12; serum lipids (LS) (dyslipaemia; 75th Day): 3.97; total cholesterol (T) (dyslipaemia; 75th Day): 2.95; aortic atheromatous lesions (livers and aortas): 1.4; fatty infiltrations of the liver (livers and aortas): 1.2
Clc1ccccc1N1CCN(CCCNC2CCCCC2)CC1 [Derivative no. 6, 4-(o-chlorophenyl)-1-(3-cyclohexylamino)-propylpiperazine trihydrochloride]	–	–	–	–	–	–	–	–	–	–	–	–	–	–	–	–	61	62	0.15	0.53	–
CCCNCCCN1CCN(c2cccc(C(F)(F)F)c2)CC1 [Derivative no. 4, 1-(3-n-propylaminopropyl)-4-(m-trifluoro-methylphenyl)-piperazine dihydrochloride]	–	–	–	–	–	–	–	–	–	–	–	–	–	–	–	–	–	57	–	–	Percentage reduction in oedematous reaction (ovalbumin oedema; 2nd hour): 49%; Percentage reduction in oedematous reaction (ovalbumin oedema; 3rd hour): 61%; Percentage anti-inflammatory activity ([4]; after 1 hr): 39%; Percentage anti-inflammatory activity ([4]; after 2 hrs): 51%; Percentage anti-inflammatory activity ([4]; after 3 hrs): 53%; Percentage anti-inflammatory activity ([4]; after 5 hrs): 58%
CCCNCCCN1CCN(c2ccc(F)cc2)CC1 [Derivative no. 3, 1-(p-fluorophenyl)-4-(3-N-propylamino)propyl piperazine trihydrochloride]	–	–	–	–	–	–	–	–	–	–	–	–	–	–	–	–	–	89	–	–	Percentage reduction in oedematous reaction (ovalbumin oedema; 2nd hour): 51%; Percentage reduction in oedematous reaction (ovalbumin oedema; 3rd hour): 62%; Percentage anti-inflammatory activity ([4]; after 1 hr): 31%; Percentage anti-inflammatory activity ([4]; after 2 hrs): 44%; Percentage anti-inflammatory activity ([4]; after 3 hrs): 47%; Percentage anti-inflammatory activity ([4]; after 5 hrs): 49%
Cl.Cl.Cl.Clc1ccc(N2CCN(CCCNC3CCCCC3)CC2)cc1 [Derivative no. 5, 1-(3-cyclohexylamino-propyl)-4-(p-chlorophenyl)-piperazine trihydrochloride]	10.9	8.1	12.6	0.49	0.28	0.29	2.1	0.57	21.1	18.8	25.0	0.62	0.91	0.54	2.85	1.45	–	41	0.16	0.55	Burstein test with dextrane (B) (dyslipaemia; 75th Day): 35.9; Kunkel phenol test (K1) (dyslipaemia; 75th Day): 32.8; Kunkel phenol test (K2) (dyslipaemia; 75th Day): 41.8; esterification ratio (E/T) (dyslipaemia; 75th Day): 0.60; esterified cholesterol (E) (dyslipaemia; 75th Day): 1.78; free cholesterol (L) (dyslipaemia; 75th Day): 1.14; serum lipids (LS) (dyslipaemia; 75th Day): 4.1; total cholesterol (T) (dyslipaemia; 75th Day): 2.92; aortic atheromatous lesions (livers and aortas): 1.2; fatty infiltrations of the liver (livers and aortas): 1.0
COc1ccc(N2CCN(CCCN3CCCC3)CC2)cc1.Cl.Cl.Cl [Derivative no. 8, 1-(p-methoxyphenyl)-4-(3-pyrrolidino-propyl)-piperazine trihydrochloride]	–	–	–	–	–	–	–	–	–	–	–	–	–	–	–	–	–	74	–	–	Percentage reduction in oedematous reaction (ovalbumin oedema; 2nd hour): 55%; Percentage reduction in oedematous reaction (ovalbumin oedema; 3rd hour): 68%; Percentage anti-inflammatory activity ([4]; after 1 hr): 37%; Percentage anti-inflammatory activity ([4]; after 2 hrs): 48%; Percentage anti-inflammatory activity ([4]; after 3 hrs): 50%; Percentage anti-inflammatory activity ([4]; after 5 hrs): 54%
Clc1ccc(N2CCN(CCCN3CCOCC3)CC2)cc1 [Derivative no. 9, dimaleate]	–	–	–	–	–	–	–	–	–	–	–	–	–	–	–	–	–	100	0.13	0.57	–
